Drawing on article PMC8000592, “Discovery and Optimization of Selective Inhibitors of Meprin α (Part I)” (Pharmaceuticals, 2021), this text covers IC50 for ten molecules.

What all share (type): biochemical
Settings in all cases: triplicate, 10-point, 3:1 serial dilution, highest concentration 17.4 µM

The target in one experiment is MMP3 (Homo sapiens, UniProt P08254). The experiment can be described thus: MMP assay (Mca-KPLGL-Dpa-AR-NH2 substrate). On the procedure: (§1) We were able to procure 64 out of 87 selected compounds from commercial sources, which we tested in triplicate, 10-point, 3:1 serial dilution concentration response format starting at the highest concentration of 17.4 µM against both meprin α and meprin β. In addition to meprins, we also tested 64 hits against related metzincins (MMP-2, MMP-3, MMP-8, MMP-9, MMP-10, MMP-14, ADAM10, and ADAM17) to ascertain general nonpromiscuity against zinc-dependent proteases.
Sequence of MMP3 (P08254 100-477, species assumed): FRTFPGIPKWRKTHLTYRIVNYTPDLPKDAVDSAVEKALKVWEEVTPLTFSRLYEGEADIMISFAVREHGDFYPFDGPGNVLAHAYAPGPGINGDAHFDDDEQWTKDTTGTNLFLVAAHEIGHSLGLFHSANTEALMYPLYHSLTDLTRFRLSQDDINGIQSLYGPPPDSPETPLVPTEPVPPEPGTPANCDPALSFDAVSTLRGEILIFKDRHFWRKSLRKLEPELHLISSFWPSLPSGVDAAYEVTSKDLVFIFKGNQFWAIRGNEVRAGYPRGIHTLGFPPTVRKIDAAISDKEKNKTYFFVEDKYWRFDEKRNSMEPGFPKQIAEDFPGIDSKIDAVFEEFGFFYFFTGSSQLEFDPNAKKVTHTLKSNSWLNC
(§2) All assays followed the same general protocol. A 5 µL portion of 2 × enzyme solution (5 nM) in assay buffer (50 mM Tricine, 50 mM NaCl, 10 mM CaCl2, 0.05% Brij-35, pH 7.5) was added to solid bottom black 384 plates (Nunc, cat# 264705). Next, test compounds and pharmacological controls were added to corresponding wells using a 384-pin tool device (V&P Scientific, San Diego, CA, USA). After 30 min incubation at RT, the reactions were started by addition of 5 µL of 2x solutions of substrate (R&D Systems cat#: ES010, Mca-KPLGL-Dpa-AR-NH2, 20 µM). Reactions were incubated at RT for 1 h, after which the fluorescence was measured using the Synergy H4 multimode microplate reader (Biotek Instruments) (λexcitation = 324 nm, λemission = 390 nm).

The next experiment addresses T1, MMP2 (Homo sapiens, UniProt P08253).
T1 construct: purchased R&D Systems 902-MP
T1 sequence (P08253 110-660): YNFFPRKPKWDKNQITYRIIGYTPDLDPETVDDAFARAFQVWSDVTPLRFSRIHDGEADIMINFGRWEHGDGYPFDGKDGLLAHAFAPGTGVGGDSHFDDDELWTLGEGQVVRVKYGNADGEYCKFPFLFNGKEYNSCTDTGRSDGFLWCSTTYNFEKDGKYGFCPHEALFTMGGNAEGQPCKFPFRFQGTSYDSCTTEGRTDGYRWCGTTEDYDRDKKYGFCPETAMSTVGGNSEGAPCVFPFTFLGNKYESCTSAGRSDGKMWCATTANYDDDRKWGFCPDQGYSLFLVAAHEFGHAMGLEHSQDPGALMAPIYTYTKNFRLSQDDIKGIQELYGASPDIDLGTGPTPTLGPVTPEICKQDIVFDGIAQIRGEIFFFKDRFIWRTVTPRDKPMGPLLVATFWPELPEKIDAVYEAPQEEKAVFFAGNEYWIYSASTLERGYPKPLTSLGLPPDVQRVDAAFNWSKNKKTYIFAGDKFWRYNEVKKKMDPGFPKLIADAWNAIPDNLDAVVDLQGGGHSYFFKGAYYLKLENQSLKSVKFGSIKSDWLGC
The experiment can be described thus: MMP assay (Mca-KPLGL-Dpa-AR-NH2 substrate). As to the method:
as §1, §2

The target in the next experiment is T2, MMP9 (Homo sapiens, UniProt P14780).
T2 construct: purchased R&D Systems 911-MP
T2 sequence (P14780 94-707): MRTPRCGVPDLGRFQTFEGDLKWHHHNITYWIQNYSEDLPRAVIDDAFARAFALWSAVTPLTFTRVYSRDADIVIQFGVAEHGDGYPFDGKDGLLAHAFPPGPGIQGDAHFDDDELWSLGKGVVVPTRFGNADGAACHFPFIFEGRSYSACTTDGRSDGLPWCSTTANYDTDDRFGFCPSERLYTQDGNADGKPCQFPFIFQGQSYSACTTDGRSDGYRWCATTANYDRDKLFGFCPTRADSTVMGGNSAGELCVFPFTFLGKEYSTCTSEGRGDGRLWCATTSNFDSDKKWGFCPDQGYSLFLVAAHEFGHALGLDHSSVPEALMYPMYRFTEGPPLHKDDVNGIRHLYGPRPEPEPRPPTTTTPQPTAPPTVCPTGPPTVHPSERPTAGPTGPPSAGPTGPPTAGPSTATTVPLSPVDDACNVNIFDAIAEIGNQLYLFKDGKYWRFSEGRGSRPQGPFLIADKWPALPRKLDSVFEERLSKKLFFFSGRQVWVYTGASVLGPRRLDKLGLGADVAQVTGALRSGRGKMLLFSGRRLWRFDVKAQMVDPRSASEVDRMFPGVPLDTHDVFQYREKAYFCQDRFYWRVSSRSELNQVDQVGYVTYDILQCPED
The experiment can be described thus: MMP assay (Mca-KPLGL-Dpa-AR-NH2 substrate). On the procedure: as §1, §2

For another experiment, the target named is T3, ADAM17 (Homo sapiens, UniProt P78536).
T3 construct: purchased R&D Systems 930-ADB
T3 sequence (P78536 215-824): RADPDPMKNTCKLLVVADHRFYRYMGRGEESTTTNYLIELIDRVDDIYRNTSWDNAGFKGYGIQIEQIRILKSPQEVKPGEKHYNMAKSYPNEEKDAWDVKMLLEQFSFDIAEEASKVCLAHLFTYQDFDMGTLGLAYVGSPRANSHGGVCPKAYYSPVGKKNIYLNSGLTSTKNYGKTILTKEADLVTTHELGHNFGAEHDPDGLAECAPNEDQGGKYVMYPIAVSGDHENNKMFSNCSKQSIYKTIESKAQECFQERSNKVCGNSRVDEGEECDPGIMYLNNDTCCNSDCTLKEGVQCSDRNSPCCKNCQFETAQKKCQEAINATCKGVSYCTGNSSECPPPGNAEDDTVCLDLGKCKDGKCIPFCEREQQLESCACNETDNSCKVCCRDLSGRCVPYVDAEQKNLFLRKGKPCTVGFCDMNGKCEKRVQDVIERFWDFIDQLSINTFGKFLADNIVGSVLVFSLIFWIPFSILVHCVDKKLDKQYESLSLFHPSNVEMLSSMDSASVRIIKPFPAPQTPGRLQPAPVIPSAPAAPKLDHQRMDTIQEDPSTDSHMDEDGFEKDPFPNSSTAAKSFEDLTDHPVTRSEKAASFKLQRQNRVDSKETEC
The experiment can be described thus: ADAM17 assay (Mca-KPLGL-Dpa-AR-NH2 substrate). As to the method: as §1
Both assays followed the same general protocol. A 2.5 µL portion of 2 × enzyme solution (20 nM) in assay buffer (10 mM HEPES, 0.001% Brij-35, pH 7.5) was added to solid bottom black 1536 plates (Greiner, cat# 789075). Next, test compounds and pharmacological controls were added to corresponding wells using a 1536 pin tool device (V&P Scientific, San Diego, CA, USA). After 30 min incubation at RT, the reactions were started by addition of 2.5 µL of 2x solutions of substrate (R&D Systems cat#: ES010, Mca-KPLGL-Dpa-AR-NH2, 20 µM). Reactions were incubated at RT for 2 h, after which the fluorescence was measured using a PerkinElmer Viewlux multimode microplate imager (λexcitation = 324 nm, λemission = 390 nm). Final concentration of test compounds in assays was 7.0 µM.

As for `O=[N+]([O-])c1ccc(CN2CCC3(CCc4ccccc43)CC2)o1` [SR207820], the IC50 (in general, the concentration needed to halve the response being measured) on MMP3 was 17 µM; at MMP2 it was over 17 µM; on MMP9 it was over 17 µM; against ADAM17 it was over 17 µM.

In the case of `O=C(COc1ccc(Cl)cc1Cl)NO` [Compound 1596857], the IC50 at MMP3, at MMP2, on MMP9 and at ADAM17 was over 17 µM throughout.

For `COc1ccc(-n2c(CSc3ncccn3)nnc2SCC(=O)NO)cc1` [Compound 19855], the IC50 at MMP3, on MMP2, on MMP9 and at ADAM17 was over 17 µM throughout.

Turning to `COc1cc(OC)cc(C(=O)CNc2nnc(SCC(=O)NO)s2)c1` [Compound 19849], the IC50 on MMP3 is over 17 µM; at MMP2, over 17 µM; at MMP9, over 17 µM; on ADAM17 it was 8.01 µM.

Turning to `O=C(CSc1nnc(NC(=O)c2ccccc2)s1)NO` [Compound 19847], the IC50 on MMP3 is over 17 µM; on MMP2, 2.87 µM; on MMP9 it was over 17 µM; on ADAM17, over 17 µM.

As for `CSc1nnc2c(n1)OC(c1ccc([N+](=O)[O-])o1)Nc1ccccc1-2` (stereo not shown) [SR412882], the IC50 on MMP3 is 15 µM; at MMP2, over 17 µM; on MMP9, over 17 µM; against ADAM17, 17 µM.

`O=C(CSc1nnc(NC(=O)COc2ccccc2)s1)NO` [Compound 19848]: the IC50 at MMP3, at MMP2, on MMP9 and against ADAM17 was over 17 µM in each case.

In the case of `O=C(CCN(Cc1ccccc1)S(=O)(=O)c1ccc(F)cc1)NO` [Compound 162808], the IC50 at MMP3 was over 17 µM; at MMP2, 17 µM; on MMP9 it was over 17 µM; against ADAM17 it was over 17 µM.

For `O=C(CCN(Cc1cccs1)S(=O)(=O)c1ccc([N+](=O)[O-])cc1)NO` [Compound 162799], the half-maximal inhibitory concentration (IC50) at MMP3, at MMP2, on MMP9 and at ADAM17 was over 17 µM each time.

In the case of `O=C(c1ccc(C(=O)O)c([N+](=O)[O-])c1)c1ccc(C(=O)O)c([N+](=O)[O-])c1` [SR355996], the IC50 on MMP3 was over 17 µM; on MMP2, over 17 µM; at MMP9, 17 µM; against ADAM17 it was over 17 µM.
